Assay results: patent US8980646B2, “Proteolytic and covalent antibodies” (priority 2003, dated 2015)

Experiments:
[1] = test system: peptide-AMC substrates; test: Peptide-AMC cleavage by IgM, IgG and Fab (fluorimetry); assay type: biochemical; conditions: 675 nM pepsin; other conditions as FIG. 31B
[2] = test system: human IgG HS-2; test: Irreversible inhibition of HS-2 IgG-catalyzed [Tyr10-125I]-VIP cleavage; assay type: biochemical; conditions: for IC50: IgG 2 μM preincubated 16 h with CRA, unreacted CRA removed
Description: FIG. 23. Inhibition of polyclonal antibody catalyzed VIP cleavage by VIP-CRA 3 and hapten CRA 1. Panel A: Reversed-phase HPLC profiles showing cleavage of [Tyr^10-^125I]-VIP at multiple sites by human IgG HS-2. [Tyr^10-^1251I]-VIP incubated in the presence (●) or absence (◯) of HS-2 IgG (2 μM) for 16 h and subjected to HPLC [Nova-pak C, 3.9×150 mm; 0.1% TFA in water: 0.1% TFA in 80% acetonitrile 95:5 for 10 min, 95:5 to 30:70 in 55 min, 30:70 to 0:100 in 5 min, 0:100 for 5 min (0.5 ml/min)]. Shown are values of ^125I radioactivity recovered in the HPLC fractions (0.5 ml). Panel B: Irreversible inhibition of HS-2 IgG-catalyzed [Tyr^10-^125I]-VIP cleavage by VIP-CRA 3 and hapten CRA 1. IgG (2 μM) was preincubated for 16 h in the absence or presence of increasing concentrations of VIP-CRA 3 (●) or hapten CRA 1 (◯). Following removal of unreacted CRA by chromatography on immobilized Protein G, the residual catalytic activity of the IgG was measured using [Tyr^10-^125I]-VIP as substrate. Data are means±SD. Control HS-2 IgG incubated in the absence of CRAs cleaved 2791 c.p.m. [Tyr^10-^125I]-VIP.
Preparation and assay of cleavage of [Tyr^10-^125I]-VIP were described previously (24). To determine if the CRAs inhibit Abs irreversibly, IgG (2 μM) was incubated (37° C.) with 1 or 3 for 16 h in 50 mM Tris.HCl-0.1M Gly (pH 8.0) containing 2.5% DMSO and 0.025% Tween 20. Unreacted 1 or 3 was then removed by chromatography of the reaction mixtures (0.2 ml) on protein G columns as in ref35 (50 μl settled gel; washed with 0.8 ml 50 mM Tris.HCl, pH 7.4; eluted with 0.2 ml 0.1 M Gly.HCl, pH 2.7; neutralized with 1M Tris.HCl, pH 9). Fifty μl aliquots of the recovered IgG (and IgG-CRA complexes) were incubated with [Tyr^10-^125I]-VIP (86,000 c.p.m.) for 18 h and peptide cleavage was determined by measuring the radioactivity soluble in trichloroacetic acid. Control IgG samples were incubated without CRA, chromatographed and analyzed for VIP cleaving activity in the same way.

[3] = target: exEGFR protein CRA IV (human) (UniProt P00533)
[4] = target: gp120-CRA III (HIV-1, MN strain) (UniProt P05877); test: ELISA, serum 1:100, immobilized III
[5] = target: HIV-1 gp120 (MN strain, recombinant, baculovirus expression system) (HIV-1, MN strain) (UniProt P05877); test: ELISA, serum 1:100, immobilized gp120
[6] = test system: anti-VIP IgG c23.5 light chain; assay type: binding, mouse
[7] = test system: murine splenocytes; test: Hapten CRA I staining of splenocytes / B cells (microscopy, flow cytometry, extract affinity chromatography)
[8] = test system: IgG; assay type: biochemical, human
[9] = test system: polyclonal murine IgM; assay type: biochemical, mouse
[10] = Irreversible hapten CRA I binding by IgG, scFv and trypsin (SDS-electrophoresis of biotin-containing adducts); conditions: CRA I 100 μM; linear regression of FIG. 8B data

Molecule: pepsin: purified porcine pepsin used as control
- cleavage of Glu-Ala-Arg-AMC by pepsin [1]: did not cleave

Molecule: VIP-CRA 3: N-terminally biotinylated VIP with amidino phosphonate diester on the Lys20 side chain; called VIP-CRA 4 in Examples VI, XI
- VIP-CRA concentration giving near-complete inhibition of catalysis ([2]; IgG 2 μM preincubated 16 h): > 20 µM
- IC50 [2]: 7 µM

Molecule: nonimmune mouse IgG / nonimmune mouse serum (antibody)
- kobs (pseudo-first order rate constant for accumulation of adducts) [3]: < 0.0072 h⁻¹
- A490 [4]: -0.002 A490
- A490 [5]: 0.001 A490

Molecule: vasoactive intestinal peptide [VIP]
- inhibition of formation of VIP-CRA 3 adducts with anti-VIP light chain [6]: 41.0±7%

Molecule: N=C(N)c1ccc(C(NC(=O)CCCCCNC(=O)CCCC[C@@H]2SC[C@@H]3NC(=O)N[C@@H]32)P(=O)(Oc2ccccc2)Oc2ccccc2)cc1 (stereo partly drawn) [hapten CRA I, Diphenyl N-(6-biotinamidohexanoyl)amino(4-amidinophenyl)methanephosphonate]
- cell viability following incubation (trypan blue exclusion) [7]: No loss of viability
- CRA I-stained cells positive for B cell marker CD19 ([7]; 3 repeat experiments): 82±4%
- total CRA content of B cells adsorbed by immobilized Abs to μ and κ/λ chains ([7]; B cell extract, densitometry): Eighty
- cells displaying intense staining ([7]; N 3 experiments, counting 400 lymphocytes, UV microscope): 11±2
- minority subpopulation with very high fluorescence intensity ([7]; flow cytometry): 14%
- CRA I-treated cells with fluorescence intensity exceeding compound II-treated cells ([7]; flow cytometry, 100 μM, 4 hours): Seventy nine
- effect on IgG-catalyzed peptide-MCA cleavage [8]: inhibited
- IC50 [2]: 36 µM
- inhibition of murine IgM activity [9]: 9-100%
- IC50 ([9]; read-out: IC50, murine IgM Glu-Ala-Arg-AMC cleavage): 42 µM

B1: trypsin: porcine trypsin, type IX, Sigma (protein, UniProt P00761 9-231, looked up)
Trypsin: IVGGYTCAANSIPYQVSLNSGSHFCGGSLINSQWVVSAAHCYKSRIQVRLGEHNIDVLEGNEQFINAAKIITHPNFNGNTLDNDIMLIKLSSPATLNSRVATVSLPRSCAAAGTECLISGWGNTKSSGSSYPSLLQCLKAPVLSDSSCKSSYPGQITGNMICVGFLEGGKDSCQGDSGGPVVCNGQLQGIVSWGYGCAQKNKPGVYTKVCNYVNWIQQTIAAN
- velocity of covalent I adduct formation [10]: 11.9±0.6 AAU/min
